Experimental data reported in PMC3973943, “Microwave-assisted synthesis of some hybrid molecules containing penicillanic acid or cephalosporanic acid moieties and investigation of their biological activities” (Medicinal Chemistry Research, 2013).
pIC50: −log10 of the molar value.

The compounds below were run against Jack bean urease (Canavalia ensiformis, UniProt P07374) (assay: indophenol ammonia assay, […] nm).
Type: biochemical

Jack bean urease, sequence (P07374 whole entry): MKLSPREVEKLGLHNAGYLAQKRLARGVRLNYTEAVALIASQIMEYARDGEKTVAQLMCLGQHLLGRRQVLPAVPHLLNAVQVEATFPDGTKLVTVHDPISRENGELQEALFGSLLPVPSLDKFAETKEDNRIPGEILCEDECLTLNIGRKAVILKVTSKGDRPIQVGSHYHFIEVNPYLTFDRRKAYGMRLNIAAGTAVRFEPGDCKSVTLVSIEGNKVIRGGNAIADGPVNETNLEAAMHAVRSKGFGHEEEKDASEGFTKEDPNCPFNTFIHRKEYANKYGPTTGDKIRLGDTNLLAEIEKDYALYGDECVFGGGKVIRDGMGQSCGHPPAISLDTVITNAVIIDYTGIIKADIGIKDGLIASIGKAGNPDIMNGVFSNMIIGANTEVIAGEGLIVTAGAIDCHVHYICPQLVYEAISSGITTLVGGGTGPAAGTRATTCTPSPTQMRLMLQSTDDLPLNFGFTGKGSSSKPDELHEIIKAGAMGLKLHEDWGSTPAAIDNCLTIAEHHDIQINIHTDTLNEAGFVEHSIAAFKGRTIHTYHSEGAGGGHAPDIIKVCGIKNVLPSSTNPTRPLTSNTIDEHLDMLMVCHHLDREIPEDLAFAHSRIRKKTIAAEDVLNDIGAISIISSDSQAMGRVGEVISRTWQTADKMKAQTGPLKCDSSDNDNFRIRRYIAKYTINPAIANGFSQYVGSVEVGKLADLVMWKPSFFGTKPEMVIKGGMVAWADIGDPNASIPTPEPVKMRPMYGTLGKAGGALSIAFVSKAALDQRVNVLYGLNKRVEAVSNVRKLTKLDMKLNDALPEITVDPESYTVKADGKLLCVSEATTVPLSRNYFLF

How did the pIC50 turn out when NC(N)=S [Thiourea, reference compound] was run?
Its pIC50 is 3.14.

How did the pIC50 turn out when CCOC(=O)N1CCN(c2ccc(NCc3nn(CN[C@@H]4C(=O)N5[C@@H]4SC(C)(C)[C@@H]5C(=O)O)c(=S)n3-c3ccccc3)cc2F)CC1 [compound 17, [({(5R,6R)-6-[({3-[({4-[4-(Ethoxycarbonyl)piperazin-1-yl]-3-fluorophenyl}amino)methyl]-4-phenyl-5-thioxo-4,5-dihydro-1H-1,2,4-triazol-1-yl}methyl)amino]-3,3-dimethyl-7-oxo-4-thia-1-azabicyclo[3.2.0]hept-2-yl}carbonyl)oxy](triethyl)ammonium] was run?
Its pIC50 is 4.18.

CCOC(=O)N1CCN(c2ccc(NCc3nn(CN[C@@H]4C(=O)N5C(C(=O)O)=C(COC(C)=O)CS[C@H]45)c(=S)n3-c3ccc(F)cc3)cc2F)CC1 [compound 15, ({[(6R,7R)-3-[(Acetyloxy)methyl]-7-({[3-[({4-[4-(ethoxycarbonyl)piperazin-1-yl]-3-fluorophenyl}amino)methyl]-4-(4-fluorophenyl)-5-thioxo-4,5-dihydro-1H-1,2,4-triazol-1-yl]methyl}amino)-8-oxo-5-thia-1-azabicyclo[4.2.0]oct-2-en-2-yl]carbonyl}oxy)triethyl ammonium] was tested. Which pIC50 did it give?
Its pIC50 is 5.21.
